For assay [1], the system named is C. neoformans strain H99S. The assay can be described thus: Synergy testing. It counts as cell-based, Cryptococcus neoformans. The following applies: for MIC: Cryptococcus neoformans, H99S, read-out: MIC-B, Drug Alone; for MIC-B, Combination: Drug B in combination with AEC5, average of three independent experiments; for FIC index (FICi): combination of the labelled Drug B with AEC5 (Drug A); for interaction with AEC5 by FICi: combination of the labelled drug with AEC5; for change of the drug's MIC when combined with AEC5: drop of MIC, combination versus alone.

The next assay concerns C. neoformans. The settings on record: cited from earlier work.

We go through three compounds from article PMC6660985 (Biopolymers, 2019).

What is called MIC is the smallest concentration in the dilution series that meets the test's criterion for growth inhibition. As for `Nc1[nH]c(=O)ncc1F` [Flucytosine, flucytosine], in assay [1], the MIC came to 4 µg/mL; the “MIC-B, Combination” value amounted to 0.25 µg/mL; the “FIC index (FICi)” value stood at 0.23; the “interaction with AEC5 by FICi” value is on record as “synergistic (FICi < 0.5 synergistic)”.

In the case of `C[C@@H]1[C@H](O)[C@@H](C)/C=C/C=C/C=C/C=C/C=C/C=C/C=C/[C@H](O[C@@H]2O[C@H](C)[C@@H](O)[C@H](N)[C@@H]2O)C[C@@H]2O[C@](O)(C[C@@H](O)C[C@@H](O)[C@H](O)CC[C@@H](O)C[C@@H](O)CC(=O)O[C@H]1C)C[C@H](O)[C@H]2C(=O)O` [Amphotericin B, amphotericin B], in assay [1], the MIC amounted to 0.0156 µg/mL; the “MIC-B, Combination” value is 0.0156 µg/mL; the “FIC index (FICi)” value is 1.50; the “interaction with AEC5 by FICi” value is “indifferent (0.5 ≤ FICi ≤ 4 indifferent)”. The “change of the drug's MIC when combined with AEC5” value in assay [1] is listed as “does not change”. Besides, the “time to reduce fungal growth by 50%” value in the assay on C. neoformans (clinical isolates from HIV/AIDS patients) is at least 10 h.

In the case of `OC(Cn1cncn1)(Cn1cncn1)c1ccc(F)cc1F` [Fluconazole, fluconazole], in assay [1], the MIC is 8 µg/mL; the “MIC-B, Combination” value was found to be 2 µg/mL; the “FIC index (FICi)” value is given as 0.75; the “interaction with AEC5 by FICi” value is “indifferent (0.5 ≤ FICi ≤ 4 indifferent)”. For the same compound, in assay [1], the “change of the drug's MIC when combined with AEC5” value is recorded as “four-fold”. The “concentration at which the compound becomes fungicidal” value in the assay with C. neoformans (against C. neoformans, primarily fungistatic below) is over 8 x MIC. The “time for 50% reduction in fungal growth” value in the assay on C. neoformans (fluconazole against C. neoformans) was 48 to 72 h.
